The target of experiment [1] is TRPM7 (Mus musculus, UniProt Q923J1). Description: Aequorin-based Ca2+ influx assay for TRPM7 inhibition. In kind it is cell-based. As to conditions: for Hill slopes for TRPM7 inhibition: Ca2+ influx assay, logistic equation fits, n = 3; for TRPM7 affinity compared to NS: relative to NS8593 (Figure 1C). The protocol:
HEK293T cells were transfected with 2 μg TRPM7 plasmid DNA and 0.1 μg pG5A plasmid DNA. After 24 h, the cells were washed with Mg^2+-free HEPES-buffered saline (HBS) containing 140 mM NaCl, 5.4 mM KCl, 0.5 mM CaCl2, 5 mM HEPES (pH 7.4), and 10 mM glucose and resuspended in Mg^2+-free HBS. After 30 min of incubation with 5 μM coelenterazine (Biaffin) at room temperature to reconstitute the aequorin, cells were washed two times by centrifugation at 2,000 rpm for 5 min (Heraeus Pico 17 microcentrifuge, Thermo Fisher Scientific). Then, they were resuspended in Mg^2+-free HBS and plated into 96-well plates. Luminescence was detected at room temperature using a CLARIOstar microplate reader (BMG Labtech). CaCl2-containing Mg^2+-free HBS was injected in the presence or absence of the inhibitors to increase the extracellular Ca^2+ concentration to 5 mM. Cell lysis with 0.1% (v/v) Triton X-100 in the Mg^2+-free HBS was used to terminate the experiment, and total bioluminescence was measured. The analysis of the bioluminescence rates (counts/s) was done in 1-s intervals and calibrated as [Ca^2+]i values using the following equation: p[Ca^2+]i=0,332588(−log(k))+5,5593 k represents the rate of aequorin consumption.
The following equation was used to determine the IC50 values of the inhibitors: E(c)=Emin+[…]/1+c^h/IC50^h
E(c) is the functional effect at the concentration c of the inhibitor, Emin is the minimal effect, Emax is the maximal effect, IC50 is the concentration of the inhibitor that produces the half-maximal effect, and h is the Hill coefficient. GraphPad Prism 8.4.0 was used for fitting.

The test system of experiment [2] is HuH7 cells. Description: SA-β-Gal staining (cellular senescence) in HuH7 cells. The format is cell-based. Conditions: for Concentration that significantly increases SA-β-Gal-positive cells (senescence induction): HuH7 cells. How it is done: (§1) Cellular senescence of treated cells was determined using the Senescence-β-galactosidase staining kit according to the manufacturer’s instructions (Cell Signaling Technology, Danvers, MA, USA). 300 cells were counted. The ratio stained to unstained cells were used to calculate the percentage of SA-β-gal-positive cells.

For experiment [3], the system named is HuH7 cells. Description: Matrigel invasion assay. In kind it is cell-based. Conditions: 20 h. How it is done: The cell invasion assay was performed using Corning BioCoat Matrigel Invasion Chambers (Corning, Tewksbury, MA, USA) according to the manufacturer’s instructions. 2.5 × 10^4 cells per well were seeded and incubated for 20 h at 37°C. The invaded cells were fixed with methanol, stained with crystal violet, and counted under a light microscope (Carl Zeiss, Oberkochen, Germany).

The target in experiment [4] is T1, RhoA-TRPM7 interaction (Homo sapiens, UniProt Q96QT4).
T1 construct: proximity ligation assay (PLA) for endogenous TRPM7 and RhoA in HuH7 cells; endogenous in cells; host or cells: HuH7
T1 sequence (Q96QT4 whole entry): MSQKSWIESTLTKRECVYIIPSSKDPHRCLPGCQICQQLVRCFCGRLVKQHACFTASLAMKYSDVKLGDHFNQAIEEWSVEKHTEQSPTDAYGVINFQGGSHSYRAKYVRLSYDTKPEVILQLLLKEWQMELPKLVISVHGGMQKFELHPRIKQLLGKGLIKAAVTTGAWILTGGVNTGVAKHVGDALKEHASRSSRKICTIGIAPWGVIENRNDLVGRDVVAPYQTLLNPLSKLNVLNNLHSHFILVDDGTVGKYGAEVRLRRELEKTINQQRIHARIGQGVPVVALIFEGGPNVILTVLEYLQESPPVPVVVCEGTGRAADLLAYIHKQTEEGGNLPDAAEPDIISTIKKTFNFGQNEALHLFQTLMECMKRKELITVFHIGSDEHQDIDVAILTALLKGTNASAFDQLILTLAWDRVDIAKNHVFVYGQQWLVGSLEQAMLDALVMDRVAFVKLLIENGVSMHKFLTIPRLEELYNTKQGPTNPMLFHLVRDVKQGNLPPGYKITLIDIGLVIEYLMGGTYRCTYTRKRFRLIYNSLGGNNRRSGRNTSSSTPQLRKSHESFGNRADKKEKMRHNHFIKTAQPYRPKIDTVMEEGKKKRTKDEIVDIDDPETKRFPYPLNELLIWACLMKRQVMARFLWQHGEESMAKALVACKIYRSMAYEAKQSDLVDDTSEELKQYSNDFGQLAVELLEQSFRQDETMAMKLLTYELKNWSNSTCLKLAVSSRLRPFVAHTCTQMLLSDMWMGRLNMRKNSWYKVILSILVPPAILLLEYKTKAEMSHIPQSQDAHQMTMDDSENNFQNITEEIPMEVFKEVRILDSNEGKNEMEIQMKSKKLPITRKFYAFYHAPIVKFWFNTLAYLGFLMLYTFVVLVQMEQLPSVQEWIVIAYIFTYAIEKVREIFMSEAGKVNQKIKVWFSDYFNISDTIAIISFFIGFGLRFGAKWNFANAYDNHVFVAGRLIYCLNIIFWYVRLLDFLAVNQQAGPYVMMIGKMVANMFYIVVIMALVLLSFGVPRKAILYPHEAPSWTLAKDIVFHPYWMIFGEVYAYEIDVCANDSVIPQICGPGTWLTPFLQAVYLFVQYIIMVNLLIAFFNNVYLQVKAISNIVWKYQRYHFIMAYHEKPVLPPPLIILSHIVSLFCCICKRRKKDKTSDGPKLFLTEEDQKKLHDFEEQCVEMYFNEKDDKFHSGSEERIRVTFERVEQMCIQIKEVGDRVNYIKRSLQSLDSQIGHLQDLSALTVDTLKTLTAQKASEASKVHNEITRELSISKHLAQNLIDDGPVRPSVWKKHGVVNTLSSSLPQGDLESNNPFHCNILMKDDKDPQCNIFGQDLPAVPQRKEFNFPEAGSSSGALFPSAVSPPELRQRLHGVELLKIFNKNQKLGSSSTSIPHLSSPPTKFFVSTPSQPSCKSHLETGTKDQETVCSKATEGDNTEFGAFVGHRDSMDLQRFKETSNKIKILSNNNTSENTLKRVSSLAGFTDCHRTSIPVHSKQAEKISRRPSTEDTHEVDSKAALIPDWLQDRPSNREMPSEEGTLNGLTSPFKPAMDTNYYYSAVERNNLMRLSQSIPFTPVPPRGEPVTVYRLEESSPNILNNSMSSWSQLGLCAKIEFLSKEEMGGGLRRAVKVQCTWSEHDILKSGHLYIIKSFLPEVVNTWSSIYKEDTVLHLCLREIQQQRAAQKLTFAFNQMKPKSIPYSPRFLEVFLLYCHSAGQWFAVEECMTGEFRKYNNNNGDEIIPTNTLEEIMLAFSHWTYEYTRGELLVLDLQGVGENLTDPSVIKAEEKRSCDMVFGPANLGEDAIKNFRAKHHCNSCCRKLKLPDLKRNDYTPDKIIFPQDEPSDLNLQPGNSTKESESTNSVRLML
The experiment can be described thus: In situ proximity ligation assay for endogenous TRPM7 and RhoA. In kind it is cell-based. Conditions: HuH7 cells, 6 h. The protocol: The DuoLink In situ Red Starter Kit Mouse/Rabbit (Sigma-Aldrich, Merck) was used according to the manufacturer’s protocol for DuoLink In Situ Solutions (Sigma-Aldrich, Merck). Anti-TRPM7/TRPM6 (Abcam, Cambridge, UK), anti-RhoA (NewEast Bioscience, Malvern, PA, USA), anti-MRTF-A (Santa Cruz Biotechnology, Santa Cruz, CA, USA), and anti-Filamin A (Thermo Fisher Scientific, Schwerte, Germany) antibodies were used as primary antibodies for incubation (Table S4). Images were recorded with a fluorescence microscope (Nikon, Düsseldorf, Germany).

Experiment [5] deals with MRTF-A. Description: Immunofluorescence of MRTF-A nuclear localization. The format is cell-based. As to conditions: for MRTF-A nuclear localization reduced to: HuH7 and HuH6 cells (Figures 3B and S3A). How it is done:
Cells were fixated by a 10-min incubation with 4% paraformaldehyde in PBS. To permeabilize the cells, 0.2% Triton X-100 in PBS was used. Blocking was done with 1% BSA in PBS for 30 min at 37°C, followed by incubation with the respective primary antibodies (Table S4) for 1 h at room temperature and the secondary Alexa Fluor 488-coupled antibody (Invitrogen) (Table S5). The nucleus was stained with DAPI (Sigma-Aldrich). Images were taken using a fluorescence microscope (Nikon).

The subject of experiment [6] is SRF. The experiment can be described thus: SRF reporter gene (5×SRE-luciferase) assay. As to conditions: HuH7 cells, 24 h; for SRF activity (5×SRE-luciferase): 30 μM; for Reduction in SRF activity: 5 μM. The format is cell-based. The protocol: HuH7 cells were seeded in a 12-well plate and transiently transfected with 0.25 μg 5×SRE and 0.15 μg Renilla luciferase simian virus 40 (SV40) promoter reporter as an internal control. The next day, cells were treated with inhibitors, as indicated in the figure legends, and the Dual-Luciferase Reporter Assay System (Promega, Madison, Wisconsin, USA) and the BioFix Lumi-10 (Macherey-Nagel, Düren, Germany) were used. The firefly luciferase activity was normalized to the Renilla luciferase activity to compensate for divergent transfection efficiencies.
(Reporter assays use an easily measured gene product as a stand-in for the process of interest.)

Experiment [7] has as its system SK3 channels. Set-up: method as in Sørensen et al. 22. Conditions: relative to NS8593 (Figure 1C); ref Sørensen et al. 22; cited from earlier work.
Experiment [8] relates to HuH7 cells. The experiment can be described thus: Cell proliferation assay (cell counting) in HuH7 cells. As to conditions: titration 2.5, 5, 7.5, 10 μM. The format is cell-based. The protocol:
Cells were seeded and counted every 24 h for 5 days by using a Neubauer counting chamber.

The test system of experiment [9] is HuH6 cells. The experiment can be described thus: SA-β-Gal staining (cellular senescence) in HuH6 cells. In kind it is cell-based. How it is done:
as §1

Experiment [10] concerns MRTF-A-GFP. The experiment can be described thus: FLIP assay, nuclear export of MRTF-A-GFP. In kind it is cell-based. As to conditions: HuH7 cells, 5 μM, compared to control cells. How it is done:
HuH7 cells were plated on 35-mm cell culture dishes and transfected with 200 ng MRTF-A-GFP and 800 ng pEF-FLAG plasmid DNA by using JetPrime (Polyplus, Illkirch, France). After treatment of the cells with the respective inhibitor, cells were imaged at 37°C, 5% CO2 in an Okolab Bold Line Cage Incubator using a Carl Zeiss LSM 700 confocal microscope with Axio Imager M2 and W Plan-Apochromat 63×/1.0 dipping objective. The software ZEN 2012 was used. Imaging parameters were as follows: pinhole diameter 1, resolution 256 × 256, bit depth 12, speed 7, line average 1, and zoom 2. The cytoplasm was bleached continuously starting after 3 scans with 2-s intervals using 100% laser power (488 nm/10 mW), and the nuclear fluorescence was recorded. The pre-bleach values were set to 1.

Experiment [11] has as its system TGF-β1. Description: Immunoblotting for TGF-β1. Conditions: HuH7 cells, 5 μM. In kind it is cell-based. The protocol:
(§2) Proteins were denatured by boiling in Laemmli buffer at 95°C. According to their molecular weight, the proteins were separated by SDS-PAGE for 2 h at 100 V using the Bio-Rad Western Blot System (Bio-Rad, Hercules, California, USA) and the power supply peQPOWER 300 (Peqlab Biotechnology, Erlangen, Germany). The proteins were then transferred onto a polyvinylidene fluoride membrane (Merck, Darmstadt, Germany), which was activated in 100% methanol and equilibrated in a transfer buffer. The transfer was done at 350 mA for approximately 2 h. To avoid non-specific protein binding, the membrane was blocked with 5% milk powder in TBS-T. Afterward, the membrane was incubated over night at 4°C with the primary (Table S2) and the respective secondary antibodies for 1 h at room temperature (Table S3). Both was done with gentle shaking. The proteins were detected via chemiluminescence in a luminescent imager (ChemiDoc Imaging System, Bio-Rad).

The subject of experiment [12] is TSPAN5. The experiment can be described thus: Immunoblotting for TSPAN5. The format is cell-based. Conditions: HuH7 cells. The protocol: as §2
In general terms: In western blotting, separated proteins are transferred to a membrane and probed.

Chain of TRPM7 (Q923J1 whole entry): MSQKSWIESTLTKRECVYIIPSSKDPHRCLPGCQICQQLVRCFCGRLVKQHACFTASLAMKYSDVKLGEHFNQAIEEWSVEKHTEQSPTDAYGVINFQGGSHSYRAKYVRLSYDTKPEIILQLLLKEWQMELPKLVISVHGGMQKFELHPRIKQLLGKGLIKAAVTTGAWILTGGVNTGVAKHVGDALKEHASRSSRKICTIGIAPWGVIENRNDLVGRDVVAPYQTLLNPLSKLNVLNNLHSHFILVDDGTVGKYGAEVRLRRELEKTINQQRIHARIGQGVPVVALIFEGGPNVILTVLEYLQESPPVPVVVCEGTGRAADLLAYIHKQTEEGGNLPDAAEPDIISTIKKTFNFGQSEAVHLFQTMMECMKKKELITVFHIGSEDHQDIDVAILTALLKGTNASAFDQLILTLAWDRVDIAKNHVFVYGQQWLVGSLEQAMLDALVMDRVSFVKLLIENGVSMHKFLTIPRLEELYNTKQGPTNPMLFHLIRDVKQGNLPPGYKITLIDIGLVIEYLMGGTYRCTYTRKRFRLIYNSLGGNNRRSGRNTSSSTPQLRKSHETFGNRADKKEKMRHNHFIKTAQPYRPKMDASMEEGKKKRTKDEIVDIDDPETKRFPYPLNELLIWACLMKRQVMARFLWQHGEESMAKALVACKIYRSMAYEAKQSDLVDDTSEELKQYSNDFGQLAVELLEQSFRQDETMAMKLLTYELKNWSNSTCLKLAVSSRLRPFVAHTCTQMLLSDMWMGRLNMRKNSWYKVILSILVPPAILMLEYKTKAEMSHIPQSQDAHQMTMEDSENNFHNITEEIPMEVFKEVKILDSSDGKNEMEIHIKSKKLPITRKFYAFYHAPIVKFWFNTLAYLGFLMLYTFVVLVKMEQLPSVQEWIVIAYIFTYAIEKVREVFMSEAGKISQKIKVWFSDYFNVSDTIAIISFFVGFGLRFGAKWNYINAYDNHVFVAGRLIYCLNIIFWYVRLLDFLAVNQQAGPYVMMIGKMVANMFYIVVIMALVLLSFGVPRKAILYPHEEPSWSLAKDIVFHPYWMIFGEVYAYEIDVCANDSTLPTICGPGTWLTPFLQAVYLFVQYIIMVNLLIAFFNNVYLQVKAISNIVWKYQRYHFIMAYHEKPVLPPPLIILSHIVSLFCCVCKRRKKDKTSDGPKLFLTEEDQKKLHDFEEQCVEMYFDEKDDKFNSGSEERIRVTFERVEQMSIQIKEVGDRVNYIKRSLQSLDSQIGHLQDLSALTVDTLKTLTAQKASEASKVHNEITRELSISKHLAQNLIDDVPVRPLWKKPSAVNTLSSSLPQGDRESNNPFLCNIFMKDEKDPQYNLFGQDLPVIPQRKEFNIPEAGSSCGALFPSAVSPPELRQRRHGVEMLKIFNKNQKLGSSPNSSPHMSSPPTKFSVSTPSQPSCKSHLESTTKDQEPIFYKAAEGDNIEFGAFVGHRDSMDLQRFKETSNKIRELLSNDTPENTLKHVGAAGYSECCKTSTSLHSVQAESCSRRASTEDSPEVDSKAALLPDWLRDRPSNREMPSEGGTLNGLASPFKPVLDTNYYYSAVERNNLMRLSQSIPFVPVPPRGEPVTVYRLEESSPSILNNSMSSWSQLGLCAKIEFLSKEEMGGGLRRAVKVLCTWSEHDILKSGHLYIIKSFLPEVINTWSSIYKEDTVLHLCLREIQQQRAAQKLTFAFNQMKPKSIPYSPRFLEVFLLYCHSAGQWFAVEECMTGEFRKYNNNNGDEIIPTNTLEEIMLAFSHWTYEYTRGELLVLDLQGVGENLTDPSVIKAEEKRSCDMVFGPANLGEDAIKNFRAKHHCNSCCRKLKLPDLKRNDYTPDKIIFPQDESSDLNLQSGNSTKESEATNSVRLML

By inhibition is commonly meant the share of the control response that was lost under treatment. Low values mean little suppression, high ones strong suppression. Regarding `c1ccc2c(c1)CCCC2Nc1nc2ccccc2[nH]1` (stereo not drawn) [compound 1], in experiment [1] (rNS), the “Hill slopes for TRPM7 inhibition” value was -1.370. For the same molecule, the “TRPM7 affinity compared to NS” value in experiment [1] is “=NS”. Further, the “Concentration that significantly increases SA-β-Gal-positive cells (senescence induction)” value in experiment [2] was 20 µM. In addition, in experiment [3] (30 μM), the “Penetration of HuH7 cells into Matrigel” value is listed as “strongly impaired”. The “RhoA-TRPM7 interaction (PLA)” value in experiment [4] (30 μM) is on record as “inhibited RhoA-TRPM7 interaction”. The inhibition at 30 µM in [5] (Homo sapiens, Huh-7, HuH7 cells, 30 μM (Figure 3B)) came to 50%. The “SRF activity (5×SRE-luciferase)” value in experiment [6] was “strong decrease”. The “SK3 affinity compared to NS” value in experiment [7] was “=NS”.
As for `Clc1cccc2c1CCCC2Nc1nc2ccccc2[nH]1` (stereo not drawn) [compound 5], in [1], the “Hill slopes for TRPM7 inhibition” value is -1.448 and the “TRPM7 affinity compared to NS” value was “>NS”. Moreover, in experiment [8], the “Concentration at which HuH7 cell growth is already significantly reduced” value stood at 2.5 µM. Further, the “Concentration that significantly increases SA-β-Gal-positive cells (senescence induction)” value in experiment [2] is 5 µM. The “Fold lower concentration than NS8593 for inducing OIS” value in [2] (compared with NS8593) is 6 fold. Also, the “Concentration that significantly increases SA-β-Gal-positive cells (senescence induction)” value in experiment [9] was 5 µM. The “Penetration of HuH7 cells into Matrigel” value in [3] (5 μM) is “strongly impaired”. The “RhoA-TRPM7 interaction (PLA)” value in experiment [4] (5 μM) was “inhibited RhoA-TRPM7 interaction”. In experiment [5] (5 μM), the “MRTF-A nuclear localization reduced to” value is 12%. The “MRTF-A-GFP fluorescence remaining in the nucleus after 80 s of bleaching” value in experiment [10] is on record as “less MRTF-A-GFP fluorescence remaining in the nucleus”. In experiment [6], the “Reduction in SRF activity” value amounted to 60% and the “SRF activity (5×SRE-luciferase)” value was “strong decrease”. Also, the “TGF-β1 expression (protein level)” value in experiment [11] is given as “almost completely abolished”. Further, the “TSPAN5 expression (protein level)” value in [12] (5 μM) is recorded as “almost completely abolished”. Further, the “SK3 affinity compared to NS” value in experiment [7] was “=NS”.
Consider `c1ccc2[nH]c(NC3CCCc4sccc43)nc2c1` (stereo not drawn) [compound 8], for which, in experiment [1], the “Hill slopes for TRPM7 inhibition” value is -1.210 and the “TRPM7 affinity compared to NS” value is recorded as “<NS”. In addition, the “Concentration that significantly increases SA-β-Gal-positive cells (senescence induction)” value in [2] was determined as 20 µM. Also, in experiment [3] (30 μM), the “Penetration of HuH7 cells into Matrigel” value is reported as “strongly impaired”. Besides, in experiment [4] (30 μM), the “RhoA-TRPM7 interaction (PLA)” value is on record as “inhibited RhoA-TRPM7 interaction”. For the same molecule, the “MRTF-A nuclear localization reduced to” value in experiment [5] (30 μM) was 12%. Also, in [6], the “Reduction in SRF activity” value was found to be 30% and the “SRF activity (5×SRE-luciferase)” value is listed as “strong decrease”. Besides, in experiment [12], the “Concentration required to significantly reduce TSPAN5 expression” value came to 20 µM. In addition, the “SK3 affinity compared to NS” value in [7] is given as “<NS”.

The values above are taken from publication PMC11387234, “Identification of novel inhibitors of the transcriptional coactivator MRTF-A for HCC therapy” (Molecular Therapy Oncology, 2024).
